{"source": "patent US11718635B2", "about": "“Iron bis(imino) aryl catalysts and methods thereof” (ExxonMobil Chemical Patents Inc., priority 2019, dated 2023)", "experiment": "Solubility tests in anhydrous hexane (stirred 30 minutes at room temperature, filtered, solvent removed)", "type": "physicochemical", "protocol": "(§1) This solution was stirred for 30 minutes at room temperature. The contents were then filtered through a buchner filter funnel with a frit having a 4-5.5 micron size. The solvent was then removed en vacuo.\nas §1", "data": [{"compound": "CC(=Nc1c(C)cc(C)cc1Cl)c1cccc(C(C)=Nc2c(C)cc(C)cc2Cl)n1.[Cl][Fe][Cl]", "note": "[2,6-bis-[1-(2-chloro-4,6-dimethylphenylimino)ethyl]pyridine iron dichloride]", "values": [{"measurement": "calculated solubility", "setting": "anhydrous hexane, stirred 30 minutes at room temperature, filtered through 4-5.5 micron frit", "result": 0.0, "unit": "g/g hexane"}]}, {"compound": "(E)-N-(2-chloro-4,6-dimethylphenyl)-1-(6-((E)-1-(mesitylimino)ethyl)pyridin-2-yl)ethan-1-imine iron-silylneopentyl [Catalyst 1]", "values": [{"measurement": "solubility in hydrophobic (nonpolar) solvents compared to the Comparative Catalyst", "result": "significantly improved solubility"}]}]}
